Reference: patent US9977009B2, “Planar patch clamp device and planar patch clamp system” (Japan Science and Technology Agency, priority 2013, dated 2018)

Assays:
[1] = tested on: nerve cells obtained by dissecting the cerebral cortex of a rat (neuron network); experiment: Channel current measurement of a neuron network with the composite multi-channel type planar patch clamp device (whole-cell mode); assay type: cell-based; settings: applied membrane potential −20 mV; for increase of large area pulse channel current in the state of glutamic acid toxicity: CNQX (200 μM) and D-AP5 (200 μM) added together after 20 μM glutamic acid, about 60 minutes, FIG. 12(c)
From the text: The composite multi-channel type planar patch clamp device (1b) of the present invention was used to conduct experiments showing that high throughput screening of drugs acting on a neural network is possible. At the cell fixing locations (24) of the Si substrate surface (2S) having approximately 2 micron size through holes (3) of the composite multi-channel type planar patch clamp device (1b) shown in FIG. 5, nerve cells (5) obtained by dissecting the cerebral cortex of a rat on day 17 of birth were seeded. The commercially available nerve cell medium (Sumitomo Bakelite) was added and the result cultured in a dish for 11 days to form a neuron network which was then observed by an optical microscope (FIG. 10). Next, the Si substrate (2) on which the nerve cells (5) were placed was set on the composite multi-channel type planar patch clamp device (1b) and the reservoir sections (22) of the first reservoir (6) were filled with the bath solution (145 mM NaCl+3 mM KCl+10 mM HEPES+2 mM CaCl2+8 mM Glucose+1 mM MgCl2.6H2O, pH7.3). […] A flat baseline was recorded without regard to the applied membrane potential. […] After measurement for about 60 minutes, to one reservoir section (22) of the first reservoir, a bath solution comprising the AMPA receptor antagonist 6-cyano-7-nitroquinoxaline-2,3-dione (CNQX)(200 μM) and NMDA receptor antagonist D-(−)-2-amino-5-phosphonopentanoic acid (D-AP5) (200 μM) dissolved in it was introduced and the channel current was again measured (FIG. 11C). […] To show these states clearer, the channel current of the applied membrane potential −20 mV was focused on and the area of each pulse-like wavelength observed was calculated. […] By filling the other reservoir sections (22) with other candidate drugs, making the valves (10) of the branch supply path (8b) and branch discharge path (9b) corresponding to the measured section the opened state, making the other valves (10) the closed state, and similarly measuring the channel current, it is possible to measure the effect of a candidate drug on the neuron network. […]

[2] = tested on: Cerebral cortex cells of a rat (neuron network); experiment: Ca^2+ imaging of a neuron network; assay type: cell-based; settings: buffer solution (500 μl) containing 10 μM glutamic acid added; FIG. 13(b)
Description: Inside the 35 mm dish (a), the substrate of FIG. 6 (finished being coated by PLL) was placed. Cerebral cortex cells of a rat on day 17 of birth isolated by the enzyme trypsin were suspended by a commercially available nerve cell medium (Sumitomo Bakelite) to give 2.5×10^5 cells/ml. This cell suspension: 2 ml (=5.0×10^5 cells) was added to the dish (a). In the presence of 5% CO2, this was cultured at 37° C. for 17 days. After formation of the neuron network, this substrate was transferred to another dish (b). To this dish (b), a nerve cell medium (2 ml) was added. To this medium, BAPTA-1 (1 μl) and Cremophor (10 μl) were added and cultured at 37° C. for 1 hour. The culture supernatant was discarded and a buffer solution (145 mM NaCl+10 mM HEPES+8 mM Glucose+3 mM KCl+2 mM CaCl2+1 mM MgCl2, pH7.3): 2 ml was added. This was stored at room temperature away from the light until right before use and the Ca^2+ fluorescence intensity was measured (Ca^2+ imaging measurement) (FIG. 13(a)). After this, a buffer solution (500 μl) containing 10 μM concentration glutamic acid was added. After 2.5 minutes, time lapse measurement of Ca^2+ imaging was started (FIG. 13(b)). After 9.5 minutes, an antagonist mixture: 10 μl containing 2.5 mM D-AP5 and 2.5 mM CNQX was added. Furthermore, after 10.5 minutes, time lapse measurement of Ca^2+ imaging was performed (FIG. 13(c)).

SMILES	increase of large area pulse channel current in the state of glutamic acid toxicity [1]	large area pulse channel current ([1]; glutamic acid added to first reservoir, final concentration 20 μM, FIG. 12(b))	concentration of Ca^2+ in the cells [2]
N#Cc1cc2c(cc1[N+](=O)[O-])=NC(=O)C(=O)N=2 [CNQX, 6-cyano-7-nitroquinoxaline-2,3-dione]	substantially eliminated		
N[C@H](CCCP(=O)(O)O)C(=O)O [D-AP5, D-(−)-2-amino-5-phosphonopentanoic acid]	substantially eliminated		
N[C@@H](CCC(=O)O)C(=O)O [glutamic acid]		increases	rise in a fluctuating manner
